This passage reports IC50 results from patent US12624026B2, “Inhibitors of SARM1” (Disarm Therapeutics, Inc., priority 2018, dated 2026).

SMILES strings stand for the structures.
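Further: inhibition of SARM1 SAM-TIR NADase activity, i.e. NAD+ cleavage, using lysate of NRK1-HEK293T cells overexpressing the SAM-TIR fragment.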

The target in the first test is T1, SARM1 SAM-TIR (Homo sapiens, UniProt Q6SZW1).
T1 construct: a fragment of the SARM1 molecule encompassing the SAM and TIR domains; made in house; host or cells: NRK1-HEK293T cells, transiently transfected; the cleared, unpurified lysate was used as the enzyme
T1 sequence (Q6SZW1 409-724 limits assumed): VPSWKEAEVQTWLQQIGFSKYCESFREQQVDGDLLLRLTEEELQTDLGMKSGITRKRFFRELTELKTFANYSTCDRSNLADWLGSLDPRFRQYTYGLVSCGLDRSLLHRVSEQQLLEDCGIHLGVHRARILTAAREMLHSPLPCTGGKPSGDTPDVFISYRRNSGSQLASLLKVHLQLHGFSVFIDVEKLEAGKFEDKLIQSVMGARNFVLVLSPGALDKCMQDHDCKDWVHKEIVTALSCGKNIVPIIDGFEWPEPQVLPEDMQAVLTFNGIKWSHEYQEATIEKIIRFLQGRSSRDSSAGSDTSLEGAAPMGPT
As to the kind of experiment: biochemical.
Settings: not given
For orientation: IC50 means the midpoint of a concentration-inhibition curve. In turn, `O=C(c1c(Nc2ccccc2C(F)(F)F)s[nH]c1=O)N1CCCC1` [Example 110] gave an IC50 of 1000 to 5000 nM.

Staying with this test, now noted: SAM-TIR lysate 5 μg/mL, 2 h pre-incubation, 5 μM NAD+, RapidFire MS of NAD+ and ADPR; read-out: SARM1 IC50.
`COCC(C)n1sc(Nc2ccccc2C(F)(F)F)c(C#N)c1=O` (centres unmarked) [Example 74]: the IC50 is below 1000 nM.
`O=C(c1c(Nc2ccccc2C(F)(F)F)s[nH]c1=O)N1CC2CCC1CC2` [Example 174]: the IC50 was above 5000 nM.
Regarding `N#Cc1c(Nc2c(Cl)cccc2Cl)sn(CCC(N)=O)c1=O` [Example 79], the half-maximal inhibitory concentration (IC50) was below 1000 nM.
As to `C[C@@H](c1ccccc1)n1sc(Nc2ccccc2C(F)(F)F)c(C(=O)N2CCOCC2)c1=O` [Example 147], the IC50 fell in the range of 1000 to 5000 nM.
With `C[C@H](CO)n1sc(Nc2ccccc2C(F)(F)F)c(C#N)c1=O` [Example 47], the IC50 is below 1000 nM.
Regarding `COCCn1sc(Nc2c(Cl)cccc2Cl)c(C#N)c1=O` [Example 73], the half-maximal inhibitory concentration (IC50) is below 1000 nM.
Same read-out and setting: under `COc1cccc(C#N)c1Nc1sn(CC(C)(C)O)c(=O)c1C(=O)N1CCOCC1` [Example 154] stands above 5000 nM; under `COc1cccc(C(F)(F)F)c1Nc1s[nH]c(=O)c1C#N` [Example 103], below 1000 nM.
On to `N#Cc1c(O)nsc1Nc1c(Cl)cccc1Cl` [Example 16], for which the IC50 was below 1000 nM.
Consider `Cn1sc(Nc2c(Cl)ccc3c2CCN3)c(C#N)c1=O` [Example 72], for which the IC50 is below 1000 nM.
For `Cn1sc(Nc2c(Br)ccc3ncccc23)c(C#N)c1=O` [Example 50], the IC50 was below 1000 nM.
On to `COC(=O)c1c(Nc2ccccc2C(F)(F)F)s[nH]c1=O` [Example 123], for which the IC50 was above 5000 nM.
In the case of `NC(=O)c1c(O)nsc1Nc1ccccc1OC(F)(F)F` [Example 21], the IC50 lay within 1000 to 5000 nM.
Still for that read-out and setting: the result for `Cc1ccc2c(Nc3sn(C)c(=O)c3C#N)c(Cl)ccc2n1` [Example 42] reads below 1000 nM; that for `CS(=O)(=O)CCn1sc(Nc2ccccc2C(F)(F)F)c(C#N)c1=O` [Example 55], below 1000 nM; that for `N#Cc1c(O)nsc1Nc1cccc2ccccc12` [Example 26], below 1000 nM.
The same measure, in the same setting: the result for `N#Cc1c(O)nsc1Nc1ccc(Cl)cc1Cl` [Example 9] reads below 1000 nM.
As to `CN(c1ccccc1C(F)(F)F)c1snc(O)c1C#N` [Example 30], the IC50 was above 5000 nM.
Take `COCCn1sc(Nc2cccc(Cl)c2Cl)c(C(=N)N2CCCCC2)c1=O` [Example 127]: the IC50 is below 1000 nM.
Same read-out and setting: the result for `COCCn1sc(Nc2c(Cl)ccc3ncccc23)c(C#N)c1=O` [Example 86] reads below 1000 nM; that for `C[C@@H](c1ccccc1)n1sc(Nc2c(Cl)cccc2Cl)c(C(=N)N(C)C)c1=O` [Example 134], 1000 to 5000 nM.
As for `COCCn1sc(Nc2c(Cl)cccc2C(F)(F)F)c(C#N)c1=O` [Example 90], the IC50 was below 1000 nM.
As to `Cn1sc(Nc2cccc3c2CCCO3)c(C#N)c1=O` [Example 75], the IC50 was below 1000 nM.
Same read-out and setting: under `Cn1sc(Nc2c(Cl)cccc2Cl)c(C(=N)N2CCOCC2)c1=O` [Example 132] stands below 1000 nM; under `COc1cccc(Cl)c1Nc1s[nH]c(=O)c1C#N` [Example 100], below 1000 nM; under `Cc1cc(C)n2c1C=C1C=CC(CCC(=O)NCCOCCOCCn3sc(Nc4ccccc4C(F)(F)F)c(C#N)c3=O)=[N+]1[B-]2(F)F` [Example 177], below 1000 nM.
Regarding `CN(C(=O)c1c(Nc2ccccc2C(F)(F)F)s[nH]c1=O)C1CCCCC1` [Example 112], the IC50 lay within 1000 to 5000 nM.
As for `N#Cc1c(O)nsc1Nc1ccc(Cl)cc1` [Example 5], the IC50 lay in the range of 1000 to 5000 nM.
On to `CN(C)C(=N)c1c(Nc2ccccc2Cl)sn(C)c1=O` [Example 125], for which the IC50 is below 1000 nM.
Turning to `C[C@@H](c1ccccc1)n1sc(Nc2cccc(Cl)c2Cl)c(C#N)c1=O` [Example 54], the IC50 was below 1000 nM.
With `N#Cc1c(O)nsc1Nc1ccccc1` [Example 1], the concentration for half-maximal inhibition (IC50) is 1000 to 5000 nM.
`Cn1sc(Nc2c(Cl)ccc3ncccc23)c(C#N)c1=O` [Example 52]: the half-inhibitory concentration (IC50) was below 1000 nM.
On to `N#Cc1c(Nc2cccc3ncccc23)sn(CCC(N)=O)c1=O` [Example 122], for which the half-inhibitory concentration (IC50) is below 1000 nM.
With `N#Cc1c(Nc2ccc(N3CC[C@@H](O)C3)nc2)s[nH]c1=O` [Example 150], the IC50 lay within 1000 to 5000 nM.
The same measure, in the same setting: the result for `COc1cccc(OC)c1Nc1s[nH]c(=O)c1C#N` [Example 113] reads 1000 to 5000 nM; that for `COCCn1sc(Nc2ccccc2C(F)(F)F)c(C#N)c1=O` [Example 51], below 1000 nM.
For `C[C@@H](c1ccccc1)n1sc(Nc2ccccc2C(F)(F)F)c(C(=N)N(C)C)c1=O` [Example 128], the half-maximal inhibitory concentration (IC50) is below 1000 nM.
In the case of `N#Cc1c(Nc2cccc(-c3ccc4cc[nH]c4c3)c2C(F)(F)F)s[nH]c1=O` [Example 161], the 50% inhibitory concentration (IC50) was above 5000 nM.
Still for that read-out and setting: under `Cn1ccc(Cn2sc(Nc3ccccc3C(F)(F)F)c(C#N)c2=O)n1` [Example 56] stands below 1000 nM.
Same read-out and setting: under `Cn1sc(Nc2ccc(Cl)c3c2CCO3)c(C#N)c1=O` [Example 41] stands below 1000 nM.
As for `COC[C@H](C)n1sc(Nc2ccccc2C(F)(F)F)c(C#N)c1=O` [Example 59], the IC50 is below 1000 nM.
The same measure, in the same setting: under `CN(C)C(=N)c1c(Nc2ccccc2C2CC2)s[nH]c1=O` [Example 146] stands 1000 to 5000 nM; under `C#CCOCCOCCOCCn1sc(Nc2ccccc2C(F)(F)F)c(C#N)c1=O` [Example 180], below 1000 nM; under `CN(C)C(=N)c1c(Nc2cccc(Cl)c2Cl)s[nH]c1=O` [Example 133], below 1000 nM.
For `Cn1sc(Nc2c(Cl)cccc2Cl)c(C(=O)N2CCOCC2)c1=O` [Example 143], the IC50 is 1000 to 5000 nM.
For `N=C(c1c(Nc2cccc(Cl)c2Cl)s[nH]c1=O)N1CCOCC1` [Example 136], the IC50 is 1000 to 5000 nM.
Same read-out and setting: the result for `N#Cc1c(Nc2ccccc2C(F)(F)F)sn(C[C@@H]2CCOC2)c1=O` [Example 60] reads below 1000 nM.
Regarding `Cn1sc(Nc2ccc(Cl)c3c2CCCO3)c(C#N)c1=O` [Example 85], the half-maximal inhibitory concentration (IC50) was below 1000 nM.
With `C[C@@H](c1ccccc1)n1sc(Nc2ccccc2C(F)(F)F)c(C(=N)N2CCOCC2)c1=O` [Example 137], the IC50 lay in the range of 1000 to 5000 nM.
For the compound `CN(C)CCn1sc(Nc2ccccc2C(F)(F)F)c(C#N)c1=O` [Example 33], the concentration for half-maximal inhibition (IC50) was below 1000 nM.
Turning to `Cn1sc(Nc2c(F)cccc2Cl)c(C(=O)N2CCOCC2)c1=O` [Example 140], the half-maximal inhibitory concentration (IC50) was in the range of 1000 to 5000 nM.
Consider `COCCN(C)C(=N)c1c(Nc2ccccc2C(F)(F)F)s[nH]c1=O` [Example 141], for which the 50% inhibitory concentration (IC50) was in the range of 1000 to 5000 nM.
Same read-out and setting: under `COCCn1sc(Nc2cccc(Cl)c2Cl)c(C#N)c1=O` [Example 58] stands below 1000 nM; under `Cn1sc(Nc2ccccc2Cl)c(C(=N)N2CCOCC2)c1=O` [Example 126], below 1000 nM.
As to `COCCn1sc(Nc2c(OC)cccc2C(F)(F)F)c(C#N)c1=O` [Example 57], the half-inhibitory concentration (IC50) is below 1000 nM.
With `COCCn1sc(Nc2ccccc2C(C)(C)C)c(C#N)c1=O` [Example 98], the half-inhibitory concentration (IC50) is below 1000 nM.
Turning to `CSc1ccccc1Nc1snc(O)c1C#N` [Example 23], the IC50 was below 1000 nM.
Same read-out and setting: under `N#Cc1c(Nc2ccccc2C(F)(F)F)sn(CCO)c1=O` [Example 39] stands below 1000 nM; under `O=c1cc(Nc2ccccc2C(F)(F)F)s[nH]1` [Example 166], 1000 to 5000 nM.
For `O=C(c1c(Nc2c(F)cccc2Cl)s[nH]c1=O)N1CCOCC1` [Example 149], the IC50 was in the range of 1000 to 5000 nM.
In the case of `CN(C)C(=N)c1c(Nc2ccccc2C(F)(F)F)s[nH]c1=O` [Example 138], the half-inhibitory concentration (IC50) lay in the range of 1000 to 5000 nM.
For the compound `COCCN(C)C(=O)c1c(Nc2ccccc2C(F)(F)F)s[nH]c1=O` [Example 116], the half-inhibitory concentration (IC50) was above 5000 nM.
In the case of `COC(C)(C)Cn1sc(Nc2c(Cl)cccc2Cl)c(C#N)c1=O` [Example 96], the IC50 is below 1000 nM.
As to `CCn1sc(Nc2ccccc2C(F)(F)F)c(C#N)c1=O` [Example 65], the 50% inhibitory concentration (IC50) is below 1000 nM.
`N#Cc1c(O)nsc1Nc1ccc(Cl)c(Cl)c1` [Example 8]: the IC50 fell in the range of 1000 to 5000 nM.
With `N#Cc1c(NC2CCCCC2)s[nH]c1=O` [Example 170], the IC50 is above 5000 nM.
Same read-out and setting: under `Cn1sc(Nc2c(Cl)ccc3c2CCCN3)c(C#N)c1=O` [Example 77] stands below 1000 nM; under `CC(C)(O)Cn1sc(Nc2c(F)cccc2Cl)c(C#N)c1=O` [Example 67], below 1000 nM; under `N#Cc1c(Nc2ccccc2C(F)(F)F)sn(C[C@H]2CCOC2)c1=O` [Example 63], below 1000 nM.
On to `CCCn1sc(Nc2ccccc2C(F)(F)F)c(C#N)c1=O` [Example 87], for which the 50% inhibitory concentration (IC50) was below 1000 nM.
The same measure, in the same setting: the result for `N#Cc1c(O)nsc1Nc1ccc2cccnc2c1` [Example 29] reads 1000 to 5000 nM; that for `Cc1ccc2c(Nc3sn(C)c(=O)c3C#N)cccc2n1` [Example 91], below 1000 nM; that for `COC(C)(C)Cn1sc(Nc2ccccc2C(F)(F)F)c(C#N)c1=O` [Example 97], below 1000 nM.
With `N#Cc1c(Nc2ccccc2C(F)(F)F)sn(CCC(=O)N2CCC(N3CCC3)CC2)c1=O` [Example 78], the IC50 is below 1000 nM.
With `Cn1sc(Nc2ccc(Cl)c3c2cnn3C)c(C#N)c1=O` [Example 69], the IC50 is below 1000 nM.
With `CC(C)(O)Cn1sc(Nc2ccccc2C(F)(F)F)c(C#N)c1=O` [Example 64], the IC50 is below 1000 nM.
Turning to `COc1ccc2nc(C)ccc2c1Nc1s[nH]c(=O)c1C#N` [Example 106], the IC50 lay in the range of 1000 to 5000 nM.
With `C[C@H](c1ccccc1)n1sc(Nc2ccccc2C(F)(F)F)c(C#N)c1=O` [Example 89], the half-inhibitory concentration (IC50) is below 1000 nM.
Same read-out and setting: under `Cn1sc(Nc2cccc(Cl)c2Cl)c(C#N)c1=O` [Example 37] stands below 1000 nM.
